Reference: patent publication US5736529A, “Use of NAD-related compounds in the treatment of neural trauma to inhibit neurodegeneration” (priority 1996, dated 1998)

How the values were obtained:
C57BL/6 mice = experiment: Behavior and survival of mice after ICV tBuOOH; format: in vivo, mouse (male C57BL/6)
Procedure: (§1) In general male C57BL/6 mice (2, 8 or 24 months old) were anesthetized with ketamine and xylazine (200 and 2 mg/kg, ip). They were injected ICV with tBuOOH in doses of approximately 22 or 110 mg/kg. This amounts to 1 or 5 μl of a 70% solution of tBuOOH injected slowly into a lateral cerebral ventricle. A mouse brain weighs about 400 mg. […] Animals recovered from anesthesia about 30 minutes or so after tBuOOH administration. […] Low dose mice survived for 48 hours or more.

catalase = conditions: cited from earlier work
NAD = conditions: 110 mg/kg ICV; 8 month old mice
Procedure: Male C57 B 1/6 mice, 8 months old, were treated ICV with tBuOOH (110 mg/kg) and maintained for 2, 5, 20 or 120 minutes. Anesthetized tBuOOH treated mice were immersed in liquid nitrogen to freeze their brains. The frozen brains were removed and dissected over dry ice. The brain regions were homogenized and analyzed by HPLC to determine NAD, NADH, NADP and NADPH levels as described previously. It is very important to stabilize the pyridine dinucleotides to prevent artifactual oxidation. NAD and NADP were stabilized by homogenization of brain regions in a cyanide containing solution. The cyanide reacts with the compounds forming cyano adducts that are stable. NADPH and NADH were stabilized by homogenizing brain regions in basic solution. NADPH and NADH are stable in base. Fortunately, the cyanide reaction proceeds optimally in base. Therefore, use of basic cyanide solutions during the homogenization produced optimal stabilization of NAD, NADP, NADH and NADPH. Following extraction with chloroform, centrifugation at 12,000 g for 5 minutes at 5° C., and filtration through 0.45μ positively charged nylon filters to remove DNA, the supernatants were injected onto a reverse phase HPLC column ("REXCHROME" ODS 5μ, Regis, Morton Grove, Ill.). Fluorescence detection (330 nm, excitation, 460 nm emission) was used to detect fluorescent NADH, NADPH and the cyano adducts of NAD and NADP.

[1] = system: DNA in brain sections of C57BL/6 mice; experiment: DNA fragmentation in brain regions upon treatment with tBuOOH (Tables 1 and 2); format: in vivo, mouse (C57BL/6); conditions: for Fraction of damaged DNA, Cerebellum / Fraction of damaged DNA, Cortex / Fraction of damaged DNA, Hippo / Fraction of damaged DNA, Midbrain / Fraction of damaged DNA, Striatum / Fraction of damaged DNA, Thalamus: mean ± SD
Procedure: as §1
Young adult (2 month old) and mature (8 month old) C57BL/6 mice were divided into 7 groups with 8 animals in the control group and 4 animals in each of the other groups for both the age groups. A dose of 109.7 mg/kg of tBuOOH was administered ICV, to three groups of mice of both age groups. See Tables 1 and 2. tBuOOH was injected ICV following the technique described in Popick^2. The experiments ended 2 minutes, 5 minutes and 20 minutes after injection of tBuOOH. In the second set of experiments, 21.9 mg/kg of the toxin was administered ICV in the other three groups of mice with experimental durations of 12 hours, 24 hours and 48 hours respectively. The controls were treated with saline rather than tBuOOH.
The brains were removed after the allotted time period and sectioned immediately into the following sections: cortex, striatum, hippocampus, thalamus, midbrain and cerebellum.

24 month old mice = conditions: 24 month old mice; 21.9 mg/kg t-BuOOH only
[2] = system: DNA in brain regions of C57BL/6 mice; experiment: Second experiment, tBuOOH induced DNA fragmentation (FIG. 2, FIG. 3); format: in vivo, mouse (male C57BL/6)
Procedure: A second experiment was conducted to measure the degree of DNA fragmentation. […] Male C57BL/6 mice, of ages 2, 8 or 24 months old, were treated with tBuOOH ICV. Mice in the 20 minute group were treated with 110 mg/kg of tBuOOH and maintained for 20 minutes until brains were removed and analyzed for DNA fragmentation. This dose of tBuOOH induces cellular necrosis in a number of brain regions. Mice in the 48 hour group were given 22 mg/kg of tBuOOH and maintained for 48 hours. This dose of tBuOOH induces apoptosis and a small amount of necrosis in a number of brain regions.

NADPH = experiment: Pyridine dinucleotide quantitation, NADPH in brain regions; format: in vivo, mouse (male C57BL/6); conditions: 110 mg/kg ICV, 8 month old mice
From the text: NADPH and NADH are stable in base. Fortunately, the cyanide reaction proceeds optimally in base.

[3] = in vivo; cited from earlier work
[4] = 2 month old mice, 21.9 mg/kg ICV, 12 hours
[5] = 2 month old mice, 21.9 mg/kg ICV, 24 hours
[6] = 2 month old mice, 21.9 mg/kg ICV, 48 hours
[7] = 2 month old mice, 109.7 mg/kg ICV, 2 min
[8] = 2 month old mice, 109.7 mg/kg ICV, 2 min, * p<0.05 vs control
[9] = 2 month old mice, 109.7 mg/kg ICV, 5 min
[10] = 2 month old mice, 109.7 mg/kg ICV, 20 min
[11] = 2 month old mice, 109.7 mg/kg ICV, 20 min, * p<0.05 vs control
[12] = 8 month old mice, 21.9 mg/kg ICV, 12 hours
[13] = 8 month old mice, 21.9 mg/kg ICV, 24 hours
[14] = 8 month old mice, 21.9 mg/kg ICV, 48 hours
[15] = 8 month old mice, 109.7 mg/kg ICV, 2 min
[16] = 8 month old mice, 109.7 mg/kg ICV, 5 min
[17] = 8 month old mice, 109.7 mg/kg ICV, 20 min
[18] = 8 month old mice, 109.7 mg/kg ICV, 20 min, * p<0.05 vs control

CC(C)(C)OO [tBuOOH, t-butylhydroperoxide]
behavior of low dose animals (C57BL/6 mice; about 22 mg/kg ICV): move about freely and resemble mice treated ICV with 0.9% saline
appearance of high dose mice and death (C57BL/6 mice; about 110 mg/kg ICV): frequently appeared inactive until death
time of death after treatment (C57BL/6 mice; high dose (about 110 mg/kg ICV)): about 2 hours
survival (C57BL/6 mice; low dose (about 22 mg/kg ICV)): ≥ 48 h
substrate for catalase (catalase): not a substrate for catalase
NAD levels after tBuOOH (NAD): slowly and partially depleted
effect on cortex DNA ([1]; 2 and 8 month old mice, high or low dose): not affected
DNA damage in all other brain sections ([1]; 2 and 8 month old mice, high or low dose or both): some vulnerability
Fraction of damaged DNA, Cerebellum [1, 4]: 0.65 ± 0.19 per gram of tissue
Fraction of damaged DNA, Cortex [1, 4]: 0.53 ± 0.16 per gram of tissue
Fraction of damaged DNA, Hippo [1, 4]: 0.40 ± 0.16 per gram of tissue
Fraction of damaged DNA, Midbrain [1, 4]: 0.83 ± 0.58 per gram of tissue
Fraction of damaged DNA, Striatum [1, 4]: 1.13 ± 0.49 per gram of tissue
Fraction of damaged DNA, Thalamus [1, 4]: 1.29 ± 0.39 per gram of tissue
Fraction of damaged DNA, Cerebellum [1, 5]: 0.93 ± 0.36 per gram of tissue
Fraction of damaged DNA, Cortex [1, 5]: 0.47 ± 0.13 per gram of tissue
Fraction of damaged DNA, Hippo [1, 5]: 0.31 ± 0.04 per gram of tissue
Fraction of damaged DNA, Midbrain [1, 5]: 1.23 ± 0.12 per gram of tissue
Fraction of damaged DNA, Striatum [1, 5]: 1.16 ± 0.31 per gram of tissue
Fraction of damaged DNA, Thalamus [1, 5]: 1.44 ± 0.76 per gram of tissue
Fraction of damaged DNA, Cortex [1, 6]: 0.73 ± 0.03 per gram of tissue
Fraction of damaged DNA, Hippo [1, 6]: 0.50 ± 0.09 per gram of tissue
Fraction of damaged DNA, Midbrain [1, 6]: 1.24 ± 0.13 per gram of tissue
Fraction of damaged DNA, Striatum [1, 6]: 1.66 ± 0.33 per gram of tissue
Fraction of damaged DNA, Thalamus [1, 6]: 1.25 ± 0.14 per gram of tissue
Fraction of damaged DNA, Cerebellum ([1]; 2 month old mice, 21.9 mg/kg ICV, 48 hours, * p<0.05 vs control, 1 p<0.05 vs other age group): 1.29 ± 0.12 per gram of tissue
significant damage in the hippocampus ([1]; 2 month old mice, 109.7 mg/kg): significant damage was seen 2 minutes and 20 minutes after injection
Fraction of damaged DNA, Cerebellum [1, 7]: 1.17 ± 0.25 per gram of tissue
Fraction of damaged DNA, Cortex [1, 7]: 0.84 ± 0.33 per gram of tissue
Fraction of damaged DNA, Striatum [1, 7]: 2.00 ± 0.45 per gram of tissue
Fraction of damaged DNA, Hippo [1, 8]: 0.66 ± 0.09 per gram of tissue
Fraction of damaged DNA, Midbrain [1, 8]: 2.48 ± 1.02 per gram of tissue
Fraction of damaged DNA, Thalamus [1, 8]: 2.66 ± 0.33 per gram of tissue
Fraction of damaged DNA, Cerebellum [1, 9]: 0.88 ± 0.20 per gram of tissue
Fraction of damaged DNA, Cortex [1, 9]: 0.82 ± 0.23 per gram of tissue
Fraction of damaged DNA, Hippo [1, 9]: 0.41 ± 0.05 per gram of tissue
Fraction of damaged DNA, Midbrain [1, 9]: 1.71 ± 0.77 per gram of tissue
Fraction of damaged DNA, Striatum [1, 9]: 1.66 ± 0.52 per gram of tissue
Fraction of damaged DNA, Thalamus ([1]; 2 month old mice, 109.7 mg/kg ICV, 5 min, * p<0.05 vs control): 2.85 ± 0.83 per gram of tissue
Fraction of damaged DNA, Cortex [1, 10]: 0.76 ± 0.26 per gram of tissue
Fraction of damaged DNA, Thalamus [1, 10]: 2.46 ± 0.65 per gram of tissue
Fraction of damaged DNA, Cerebellum [1, 11]: 1.39 ± 0.51 per gram of tissue
Fraction of damaged DNA, Hippo [1, 11]: 0.66 ± 0.14 per gram of tissue
Fraction of damaged DNA, Midbrain [1, 11]: 3.09 ± 0.28 per gram of tissue
Fraction of damaged DNA, Striatum [1, 11]: 2.56 ± 0.49 per gram of tissue
hippocampus damage at 5 minutes compared with other age group ([1]; 2 month old vs 8 month old mice, 109.7 mg/kg): significantly lower
significant damage in the cerebellum, early ([1]; 8 month old mice after 5 and 20 minutes, 2 month old mice after 20 minutes): Significant damage was observed after 5 minutes and 20 minutes, in the case of the 8 month old cerebellum and after 20 minutes in the 2 month old cerebellum
Fraction of damaged DNA, Cerebellum [1, 12]: 0.69 ± 0.15 per gram of tissue
Fraction of damaged DNA, Cortex [1, 12]: 0.61 ± 0.10 per gram of tissue
Fraction of damaged DNA, Hippo [1, 12]: 0.46 ± 0.17 per gram of tissue
Fraction of damaged DNA, Midbrain [1, 12]: 0.76 ± 0.24 per gram of tissue
Fraction of damaged DNA, Striatum [1, 12]: 1.17 ± 0.33 per gram of tissue
Fraction of damaged DNA, Thalamus [1, 12]: 1.08 ± 0.30 per gram of tissue
Fraction of damaged DNA, Cerebellum [1, 13]: 0.67 ± 0.16 per gram of tissue
Fraction of damaged DNA, Cortex [1, 13]: 0.65 ± 0.13 per gram of tissue
Fraction of damaged DNA, Hippo [1, 13]: 0.46 ± 0.05 per gram of tissue
Fraction of damaged DNA, Midbrain [1, 13]: 1.05 ± 0.35 per gram of tissue
Fraction of damaged DNA, Striatum [1, 13]: 0.99 ± 0.06 per gram of tissue
Fraction of damaged DNA, Thalamus [1, 13]: 0.75 ± 0.27 per gram of tissue
Fraction of damaged DNA, Cortex [1, 14]: 0.69 ± 0.10 per gram of tissue
Fraction of damaged DNA, Hippo [1, 14]: 0.55 ± 0.06 per gram of tissue
Fraction of damaged DNA, Midbrain [1, 14]: 1.05 ± 0.13 per gram of tissue
Fraction of damaged DNA, Striatum [1, 14]: 1.15 ± 0.12 per gram of tissue
Fraction of damaged DNA, Thalamus [1, 14]: 1.65 ± 0.13 per gram of tissue
Fraction of damaged DNA, Cerebellum ([1]; 8 month old mice, 21.9 mg/kg ICV, 48 hours, * p<0.05 vs control): 1.01 ± 0.11 per gram of tissue
significant damage in the hippocampus ([1]; 8 month old mice, 109.7 mg/kg): significant damage was seen within 5 minutes
Fraction of damaged DNA, Cerebellum [1, 15]: 0.80 ± 0.09 per gram of tissue
Fraction of damaged DNA, Cortex [1, 15]: 0.87 ± 0.17 per gram of tissue
Fraction of damaged DNA, Hippo [1, 15]: 0.69 ± 0.14 per gram of tissue
Fraction of damaged DNA, Midbrain [1, 15]: 2.24 ± 0.66 per gram of tissue
Fraction of damaged DNA, Striatum [1, 15]: 1.56 ± 0.27 per gram of tissue
Fraction of damaged DNA, Thalamus ([1]; 8 month old mice, 109.7 mg/kg ICV, 2 min, * p<0.05 vs control): 2.29 ± 0.78 per gram of tissue
Fraction of damaged DNA, Cortex [1, 16]: 0.67 ± 0.16 per gram of tissue
Fraction of damaged DNA, Midbrain [1, 16]: 1.93 ± 0.26 per gram of tissue
Fraction of damaged DNA, Striatum [1, 16]: 1.63 ± 0.47 per gram of tissue
Fraction of damaged DNA, Thalamus [1, 16]: 1.86 ± 0.58 per gram of tissue
Fraction of damaged DNA, Cerebellum ([1]; 8 month old mice, 109.7 mg/kg ICV, 5 min, * p<0.05 vs control): 1.15 ± 0.12 per gram of tissue
Fraction of damaged DNA, Hippo ([1]; 8 month old mice, 109.7 mg/kg ICV, 5 min, * p<0.05 vs control, 1 p<0.05 vs other age group): 0.81 ± 0.20 per gram of tissue
Fraction of damaged DNA, Cortex [1, 17]: 0.70 ± 0.19 per gram of tissue
Fraction of damaged DNA, Hippo [1, 17]: 0.67 ± 0.15 per gram of tissue
Fraction of damaged DNA, Cerebellum [1, 18]: 1.46 ± 0.36 per gram of tissue
Fraction of damaged DNA, Midbrain [1, 18]: 2.98 ± 0.85 per gram of tissue
Fraction of damaged DNA, Striatum [1, 18]: 2.38 ± 0.41 per gram of tissue
Fraction of damaged DNA, Thalamus [1, 18]: 2.77 ± 0.30 per gram of tissue
significant DNA damage in the thalamus ([1]; both age groups): significant DNA damage was found after 2 minutes
significant damage in the midbrain ([1]; both age groups): significant damage was found after 20 minutes
significant damage in the cerebellum at 48 hours ([1]; both age groups, 2 month old significantly greater than 8 month old): significant damage was observed in the cerebellum at the end of 48 hours
significant DNA damage in the striatum ([1]; both age groups, high dose): significant DNA damage was found only after 20 minutes
deaths (24 month old mice): Three out of six
DNA fragmentation in the cerebellum ([2]; 2, 8 and 24 month old mice, 48 hours): increased significantly
DNA fragmentation in the cortex ([2]; 2 and 8 month old mice): no increase in DNA fragmentation in the cortex
DNA fragmentation in the striatum, midbrain and hippocampus ([2]; 2 month old mice): increased DNA fragmentation
tBuOOH induced necrosis in the thalamus at 20 minutes ([2]; 8 and 24 month old vs 2 month old mice): 8 and 24 month old mice are more sensitive than 2 month old mice
DNA fragmentation in the cortex ([2]; 24 month old mice, also found in the hippocampus): robust increase in DNA fragmentation in the cortex
apoptosis induced DNA fragmentation in the thalamus ([2]; 48 hours after tBuOOH): found only in 24 month old mice
time of appearance of DNA fragments in the brain ([2]; after tBuOOH administration): ≤ 2 min
time for NADPH to return to control values (NADPH): ≤ 5 min
NADPH oxidation (NADPH; every brain region): oxidized rapidly
brain permeation [3]: readily permeate throughout the brain
